US20230057568A1, “COMPOUNDS FOR TREATING FAMILIAL DYSAUTONOMIA” (PTC THERAPEUTICS, INC., priority 2019, published 2023)

Tested on: Elongator complex protein 1 (ELP1, also referred to as IKBKAP)
Experiment: IKBKAP-HTRF Assay
Type: cell-based, human
Conditions: FD patient-derived fibroblasts GM04589, 48 hours incubation; for EC2x for IKBKAP protein expression (concentration producing two times the amount of IKBKAP protein vs DMSO vehicle control): 7-point concentration curve; for MFI (maximum fold increase in IKBKAP protein abundance relative to the vehicle control): HTRF
Outline: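 FD patient cells in DMEM-10% FBS were treated 48 hours at 37 °C with a 7-point, 3.16-fold compound series in triplicate, then lysed. IKBKAP was quantified by sandwich HTRF with two anti-IKAP antibodies, incubated overnight at 4 °C and read at 665/620 nm. MFI is AF relative to vehicle, and EC2× is the concentration doubling IKBKAP versus DMSO.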

Row | SMILES | EC2x for IKBKAP protein expression (concentration producing two times the amount of IKBKAP protein vs DMSO vehicle control) | MFI (maximum fold increase in IKBKAP protein abundance relative to the vehicle control)
1 | Clc1nc(NCc2cccs2)c2scc(Br)c2n1 [Cpd 80, 7-bromo-2-chloro-N-[(thiophen-2-yl)methyl]thieno[3,2-d]pyrimidin-4-amine] | *** (between >0.02 μM and ≤0.5 μM) | ***** (>4.9)
2 | Cc1c(C[C@H](C)N)sc2c(NCc3ccc(F)s3)nc(Cl)nc12 [Cpd 33, 6-[(2S)-2-aminopropyl]-2-chloro-N-[(5-fluorothiophen-2-yl)methyl]-7-methylthieno[3,2-d]pyrimidin-4-amine] | **** (between >0.005 μM and ≤0.02 μM) | **** (between >3.9 and <4.9)
3 | Cc1c(C[C@H](C)N)sc2c(NCc3ccncc3)nc(Cl)nc12 [Cpd 45, 6-[(2S)-2-aminopropyl]-2-chloro-7-methyl-N-[(pyridin-4-yl)methyl]thieno[3,2-d]pyrimidin-4-amine] | ***** (<0.005 μM) | ***** (>4.9)
4 | CC[C@H](N)Cc1sc2c(NCc3ccns3)nc(Cl)nc2c1C [Cpd 62, 6-[(2S)-2-aminobutyl]-2-chloro-7-methyl-N-[(1,2-thiazol-5-yl)methyl]thieno[3,2-d]pyrimidin-4-amine] | **** (between >0.005 μM and ≤0.02 μM) | ***** (>4.9)
5 | Cc1ccoc1CNc1nc(Cl)nc2c(C)c(C[C@H](C)N)sc12 [Cpd 30, 6-[(2S)-2-aminopropyl]-2-chloro-7-methyl-N-[(3-methylfuran-2-yl)methyl]thieno[3,2-d]pyrimidin-4-amine] | *** (between >0.02 μM and ≤0.5 μM) | **** (between >3.9 and <4.9)
6 | Cc1c(CCCO)sc2c(NCc3ccco3)nc(Cl)nc12 [Cpd 63, 3-(2-chloro-4-{[(furan-2-yl)methyl]amino}-7-methylthieno[3,2-d]pyrimidin-6-yl)propan-l-ol] | * (EC2×>1 μM) | * (MFI<1.9)
7 | Cc1ccc(CNc2nc(Cl)nc3c(C)c(C[C@H](C)N)sc23)o1 [Cpd 24, 6-[(2S)-2-aminopropyl]-2-chloro-7-methyl-N-[(5-methylfuran-2-yl)methyl]thieno[3,2-d]pyrimidin-4-amine] | *** (between >0.02 μM and ≤0.5 μM) | *** (between >2.9 and <3.9)
8 | Cc1c(C[C@H](C)N)sc2c(NCc3cccs3)nc(Cl)nc12 [Cpd 28, 6-[(2S)-2-aminopropyl]-2-chloro-7-methyl-N-[(thiophen-2-yl)methyl]thieno[3,2-d]pyrimidin-4-amine] | ***** (<0.005 μM) | ***** (>4.9)
